Results: US8624027B2, “Combination therapy for treating cancer and diagnostic assays for use therein” (AbbVie Inc., priority 2005, dated 2014)

How the values were obtained:
[1] = test system: B-cell lymphoma; assay: Oral efficacy of EXAMPLE 1 in combination therapy, antitumorigenesis on B-cell lymphoma; type: in vivo
[2] = test system: mantle cell lymphoma; assay: Oral efficacy of EXAMPLE 1 in combination therapy, antitumorigenesis on mantle cell lymphoma; type: in vivo
[3] = test system: NCI-H146 human small cell lung carcinoma cells; assay: Cellular efficacy in human tumor cell line (MTS viability assay); type: cell-based; conditions: NCI-H146; 10% human serum, 48 hours; Table 1; read-out: NCI-H146 Cellular Efficacy EC50
In short: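 Cells plated at 50,000/well in medium with 10% human serum in place of FBS. Treated with 2-fold serial dilutions from 10 μM to 0.020 μM, in duplicate, at least 3 separate runs. Viable cells measured by MTS after 48 h of compound exposure.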

[4] = test system: BAX and BAK; assay: BAX and BAK activation, immunoprecipitation of active conformers; type: cell-based, human; conditions: HCT116, D54MG, SW620, EJ1 cells made polyploid with 200 nM AZD1152 72 hours, then 1 μM ABT-263
Protocol: HCT116 cells (FIG. 11A) were treated with DMSO or 200 nM AZD1152 for 72 hours followed by 2 hours with 1 μM ABT-263. Conformationally active BAK or BAX was immunoprecipitated and detected by immunoblotting. D54MG and HCT116 cells (FIG. 11B) were treated DMSO or 200 nM AZD1152 for 72 hours prior to the addition of 1 μM ABT-263 for 4 hours. Conformationally active BAK or BAX was immunoprecipitated and detected by immunoblotting (top and middle panel). Cell lysates were also fractionated and Cytochrome C release into the cytosolic fraction was detected by immunoblotting. HCT116, SW620, and D54MG cells (FIG. 11C) were treated with DMSO (untreated) or 200 nM AZD1152 (AZD1152) for 72 hours and the expression of Bcl-2 network components were detected by immunoblotting (FIG. 11D-FIG. 11E) HCT116 cells were treated as in FIG. 11B. Endogenous Bcl-XL and Mcl-1 were immunoprecipitated, and the Bcl-2 network components in the immunecomplexes were detected by immunoblotting.
FIG. 14 BAK and BAX activation in tumor cell lines. D54MG, SW620, and EJ1 cells were treated as in FIG. 17B. Conformationally active BAK and BAX was immunoprecipitated and detected by immunoblotting.
Cell lysates were either prepared using a CHAPS lysis buffer (10 mM HEPES, pH 7.4, 150 mM NaCl, 1% CHAPS) or a cell extraction buffer containing 1% Triton X-100, 0.1% SDS, and 0.5% deoxycholate (Invitrogen). […]

In the case of `CC1(C)CCC(c2ccc(Cl)cc2)=C(CN2CCN(c3ccc(C(=O)NS(=O)(=O)c4ccc(N[C@H](CCN5CCOCC5)CSc5ccccc5)c(S(=O)(=O)C(F)(F)F)c4)cc3)CC2)C1` [Example 1, N-(4-(4-((2-(4-chlorophenyl)-5,5-dimethyl-1-cyclohex-1-en-1-yl)methyl)piperazin-1-yl)benzoyl)-4-(((1R)-3-(morpholin-4-yl)-1-((phenylsulfanyl)methyl)propyl)amino)-3-((trifluoromethyl)sulfonyl)benzenesulfonamide], the “efficacy of cytotoxic agents during combination therapy” value ([1]; EXAMPLE 1 orally with etoposide, vincristine, CHOP, rituximab, rapamycin) is reported as “synergistically enhanced efficacy”, the complete tumor regression ([1]; combination of EXAMPLE 1 and rapamycin) is reported as 70% and the complete tumor regression ([1]; combination of EXAMPLE 1 and rituximab) is reported as 70%. The complete tumor regression ([1]; combination of EXAMPLE 1 and vincristine) was 10%, the “efficacy of cytotoxic agents during combination therapy” value ([2]; EXAMPLE 1 orally with rituximab with CHOP, VELCADE) was “synergistically enhanced efficacy” and the complete tumor regression ([2]; combination of EXAMPLE 1 and bortexomib) was 10%. The complete tumor regression ([2]; combination of EXAMPLE 1 and rituximab with CHOP) was 90%, the EC50 [3] was 89.1 nM and the “BAX and BAK activation in polyploid cells” value [4] was “rapidly and synergistically induced BAX and BAK activation”.
